# Experimental data: BindingDB's records for doi:10.1021/acsmedchemlett.7b00249 (Vanderbilt University School of Medicine, 2017)
# pEC50: −log10 of the molar value.
# Target: Metabotropic glutamate receptor 5 (Rattus norvegicus, UniProt P31424)
# Experiment: Positive allosteric modulation of rat mGlu5 receptor expressed in HEK293A cells assessed as increase in glutamate induced-calcium mobilization preincubated for 2.3 mins followed by glutamate addition measured for 1.9 mins by Fluo-4 AM dye based fluorescence assay
# Metabotropic glutamate receptor 5, sequence (P31424 whole entry): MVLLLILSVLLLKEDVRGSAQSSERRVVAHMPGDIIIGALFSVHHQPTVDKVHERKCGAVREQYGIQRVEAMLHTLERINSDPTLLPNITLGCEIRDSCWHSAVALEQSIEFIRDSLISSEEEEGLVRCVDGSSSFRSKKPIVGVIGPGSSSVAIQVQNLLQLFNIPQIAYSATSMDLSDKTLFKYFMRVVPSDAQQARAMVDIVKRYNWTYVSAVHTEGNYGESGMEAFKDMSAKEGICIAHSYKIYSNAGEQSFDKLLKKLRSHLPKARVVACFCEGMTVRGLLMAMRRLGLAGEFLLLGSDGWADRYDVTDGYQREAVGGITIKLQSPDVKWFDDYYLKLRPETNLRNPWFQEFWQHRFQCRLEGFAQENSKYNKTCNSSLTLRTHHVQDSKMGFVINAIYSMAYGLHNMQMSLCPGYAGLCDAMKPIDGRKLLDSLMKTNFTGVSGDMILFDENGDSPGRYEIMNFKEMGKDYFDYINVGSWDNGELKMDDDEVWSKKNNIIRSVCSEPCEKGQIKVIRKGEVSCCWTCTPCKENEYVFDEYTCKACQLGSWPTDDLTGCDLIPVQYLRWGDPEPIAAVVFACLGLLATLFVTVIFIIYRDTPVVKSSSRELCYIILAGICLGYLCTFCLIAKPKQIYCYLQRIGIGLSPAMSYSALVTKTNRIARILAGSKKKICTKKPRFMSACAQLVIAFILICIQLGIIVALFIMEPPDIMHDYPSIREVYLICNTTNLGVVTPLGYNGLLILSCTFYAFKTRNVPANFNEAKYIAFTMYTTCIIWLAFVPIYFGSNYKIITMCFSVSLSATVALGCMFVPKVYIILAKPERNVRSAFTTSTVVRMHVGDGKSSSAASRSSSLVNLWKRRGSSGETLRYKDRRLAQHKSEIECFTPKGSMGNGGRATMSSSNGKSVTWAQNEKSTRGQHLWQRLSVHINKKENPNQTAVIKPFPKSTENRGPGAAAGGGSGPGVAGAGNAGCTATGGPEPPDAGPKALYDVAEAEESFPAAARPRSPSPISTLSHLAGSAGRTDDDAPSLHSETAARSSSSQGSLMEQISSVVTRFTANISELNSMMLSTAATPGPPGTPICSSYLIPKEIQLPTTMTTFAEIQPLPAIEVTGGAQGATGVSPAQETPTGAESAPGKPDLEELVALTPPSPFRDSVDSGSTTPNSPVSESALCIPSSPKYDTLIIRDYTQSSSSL
smiles,measurement,value
O=c1nc(OCCOc2ccccc2)ccn1-c1ccc(F)c(F)c1,pEC50,6.40
